According to US20260191838A1, “COMBINATIONS COMPRISING A MENIN-MLL INHIBITOR AND A BCL-2 INHIBITOR” (JANSSEN PHARMACEUTICA NV, priority 2022, published 2026):

System: MOLM-13 (KMT2A-r) cell line
Assay: In vitro proliferation (spheroid confluence, Incucyte), Compound 51 with venetoclax and optionally azacitidine, MOLM-13
Type: cell-based, human
Description: 3b) In Vitro Proliferation—Menin-MLL Inhibitor in Combination with Venetoclax and Optionally, Azacitidine
The effect of Compound 51, alone or in combination with venetoclax, or in combination with venetoclax+azacitidine, was determined in proliferation assays using the MOLM-13 (KMT2A-r) cell line.
MOLM-13 cells were seeded in 96-well, round-bottom, ultra-low attachment plates. The following dilution series were used: Compound 51 at an initial concentration of 1 μM, followed by a 5- or 6-point, 4-fold serial dilution series; azacitidine at an initial concentration of 25 μM, followed by a 6-point, 5-fold serial dilution series; and venetoclax at an initial concentration of 3 μM, followed by a 5- or 6-point, 5-fold serial dilution series. In the combination treatments that included venetoclax, venetoclax was added to the cells 4 days after treatment with Compound 51 and/or azacitidine was initiated. The triplet combination of Compound 51, in a checkerboard titration design with azacitidine+venetoclax, was tested at the same concentrations.
The optimal cell seeding number (500 cells/well) was chosen based on growth curves to ensure linear growth throughout the entire experiment. The DMSO content was normalized to 0.3% and cells were incubated for 8 days at 37° C., 5% CO2. Spheroid-like growth was monitored in real-time by non-invasive live-cell imaging using the 4× objective of the Incucyte ZOOM live cell imaging system (Essen BioScience), and images were acquired on Day 8. The percent confluence, as a measure of spheroid size, was determined using an integrated analysis tool that is part of the Incucyte ZOOM software “IncuCyte ZOOM 2016B” (Essen BioScience). The percent confluence from the DMSO well was used as baseline response. Each experiment contained 4 replicates of each condition and the experiment was performed 3 times. Potential combination effects were analyzed for synergy using an R-based Biochemically Intuitive Generalized Loewe (BIGL) model implemented with a highest single agent (HSA) null model (Van der Borght 2017).

Structure (SMILES): CC(=O)N1CCC(CN2CC[C@@H](Cc3cn(-c4ccc(F)cc4C(=O)N(C)C(C)C)c4cncc(C)c34)C2)CC1 [Compound 51]
- Effect size (BIGL, HSA null model) (doublet: Compound 51 0.0002 μM, Venetoclax 0.0003 μM): 0.02
- Effect size (BIGL, HSA null model) (doublet: Compound 51 0.0002 μM, Venetoclax 0.0016 μM): 0.01
- Effect size (BIGL, HSA null model) (doublet: Compound 51 0.0002 μM, Venetoclax 0.008 μM): 0.05
- Effect size (BIGL, HSA null model) (doublet: Compound 51 0.0002 μM, Venetoclax 0.04 μM): 0.02
- Effect size (BIGL, HSA null model) (doublet: Compound 51 0.0002 μM, Venetoclax 0.2 μM): 0.08
- Effect size (BIGL, HSA null model) (doublet: Compound 51 0.0002 μM, Venetoclax 1 μM): −0.05
- Effect size (BIGL, HSA null model) (doublet: Compound 51 0.001 μM, Venetoclax 0.0003 μM): 0.01
- Effect size (BIGL, HSA null model) (doublet: Compound 51 0.001 μM, Venetoclax 0.0016 μM): 0.03
- Effect size (BIGL, HSA null model) (doublet: Compound 51 0.001 μM, Venetoclax 0.008 μM): 0.02
- Effect size (BIGL, HSA null model) (doublet: Compound 51 0.001 μM, Venetoclax 0.04 μM): 0.00
- Effect size (BIGL, HSA null model) (doublet: Compound 51 0.001 μM, Venetoclax 0.2 μM): 0.05
- Effect size (BIGL, HSA null model) (doublet: Compound 51 0.001 μM, Venetoclax 1 μM): −0.05
- Effect size (BIGL, HSA null model) (doublet: Compound 51 0.004 μM, Venetoclax 0.0003 μM): 0.05
- Effect size (BIGL, HSA null model) (doublet: Compound 51 0.004 μM, Venetoclax 0.0016 μM): 0.04
- Effect size (BIGL, HSA null model) (doublet: Compound 51 0.004 μM, Venetoclax 0.008 μM): 0.04
- Effect size (BIGL, HSA null model) (doublet: Compound 51 0.004 μM, Venetoclax 0.04 μM): −0.03
- Effect size (BIGL, HSA null model) (doublet: Compound 51 0.004 μM, Venetoclax 0.2 μM): 0.40
- Effect size (BIGL, HSA null model) (doublet: Compound 51 0.004 μM, Venetoclax 1 μM): −0.09
- Effect size (BIGL, HSA null model) (doublet: Compound 51 0.0156 μM, Venetoclax 0.0003 μM): −0.04
- Effect size (BIGL, HSA null model) (doublet: Compound 51 0.0156 μM, Venetoclax 0.008 μM): −0.27
- Effect size (BIGL, HSA null model) (doublet: Compound 51 0.0156 μM, Venetoclax 0.04 μM): −0.42
- Effect size (BIGL, HSA null model) (doublet: Compound 51 0.0156 μM, Venetoclax 0.2 μM): −0.24
- Effect size (BIGL, HSA null model) (doublet: Compound 51 0.0156 μM, Venetoclax 1 μM): −0.18
- Effect size (BIGL, HSA null model) (doublet: Compound 51 0.0625 μM, Venetoclax 0.0003 μM): −0.01
- Effect size (BIGL, HSA null model) (doublet: Compound 51 0.0625 μM, Venetoclax 0.0016 μM): −0.04
- Effect size (BIGL, HSA null model) (doublet: Compound 51 0.0625 μM, Venetoclax 0.008 μM): −0.12
- Effect size (BIGL, HSA null model) (doublet: Compound 51 0.0625 μM, Venetoclax 0.04 μM): −0.15
- Effect size (BIGL, HSA null model) (doublet: Compound 51 0.0625 μM, Venetoclax 0.2 μM): −0.15
- Effect size (BIGL, HSA null model) (doublet: Compound 51 0.0625 μM, Venetoclax 1 μM): −0.16
- Effect size (BIGL, HSA null model) (doublet: Compound 51 0.25 μM, Venetoclax 0.0003 μM): 0.00
- Effect size (BIGL, HSA null model) (doublet: Compound 51 0.25 μM, Venetoclax 0.0016 μM): 0.11
- Effect size (BIGL, HSA null model) (doublet: Compound 51 0.25 μM, Venetoclax 0.008 μM): −0.05
- Effect size (BIGL, HSA null model) (doublet: Compound 51 0.25 μM, Venetoclax 0.04 μM): −0.07
- Effect size (BIGL, HSA null model) (doublet: Compound 51 0.25 μM, Venetoclax 0.2 μM): −0.13
- Effect size (BIGL, HSA null model) (doublet: Compound 51 0.25 μM, Venetoclax 1 μM): −0.07
- Effect size (BIGL, HSA null model) (doublet: Compound 51 1 μM, Venetoclax 0.0003 μM): −0.02
- Effect size (BIGL, HSA null model) (doublet: Compound 51 1 μM, Venetoclax 0.0016 μM): −0.03
- Effect size (BIGL, HSA null model) (doublet: Compound 51 1 μM, Venetoclax 0.008 μM): −0.07
- Effect size (BIGL, HSA null model) (doublet: Compound 51 1 μM, Venetoclax 0.04 μM): −0.08
- Effect size (BIGL, HSA null model) (doublet: Compound 51 1 μM, Venetoclax 0.2 μM): −0.07
- Effect size (BIGL, HSA null model) (doublet: Compound 51 1 μM, Venetoclax 1 μM): −0.06
- Effect size (BIGL, HSA null model) (triplet: Compound 51 0.001 μM, Venetoclax 0.0001 μM, Azacitidine 0.008 μM): 0.03
- Effect size (BIGL, HSA null model) (triplet: Compound 51 0.001 μM, Venetoclax 0.0002 μM, Azacitidine 0.0016 μM): 0.03
- Effect size (BIGL, HSA null model) (triplet: Compound 51 0.001 μM, Venetoclax 0.005 μM, Azacitidine 0.04 μM): 0.05
- Effect size (BIGL, HSA null model) (triplet: Compound 51 0.001 μM, Venetoclax 0.024 μM, Azacitidine 0.2 μM): −0.02
- Effect size (BIGL, HSA null model) (triplet: Compound 51 0.001 μM, Venetoclax 0.12 μM, Azacitidine 1 μM): 0.01
- Effect size (BIGL, HSA null model) (triplet: Compound 51 0.001 μM, Venetoclax 0.6 μM, Azacitidine 5 μM): −0.03
- Effect size (BIGL, HSA null model) (triplet: Compound 51 0.001 μM, Venetoclax 3 μM, Azacitidine 25 μM): 0.01
- Effect size (BIGL, HSA null model) (triplet: Compound 51 0.004 μM, Venetoclax 0.0001 μM, Azacitidine 0.008 μM): 0.03
- Effect size (BIGL, HSA null model) (triplet: Compound 51 0.004 μM, Venetoclax 0.0002 μM, Azacitidine 0.0016 μM): 0.04
- Effect size (BIGL, HSA null model) (triplet: Compound 51 0.004 μM, Venetoclax 0.005 μM, Azacitidine 0.04 μM): 0.04
- Effect size (BIGL, HSA null model) (triplet: Compound 51 0.004 μM, Venetoclax 0.024 μM, Azacitidine 0.2 μM): −0.05
- Effect size (BIGL, HSA null model) (triplet: Compound 51 0.004 μM, Venetoclax 0.12 μM, Azacitidine 1 μM): −0.08
- Effect size (BIGL, HSA null model) (triplet: Compound 51 0.004 μM, Venetoclax 0.6 μM, Azacitidine 5 μM): −0.03
- Effect size (BIGL, HSA null model) (triplet: Compound 51 0.004 μM, Venetoclax 3 μM, Azacitidine 25 μM): 0.01
- Effect size (BIGL, HSA null model) (triplet: Compound 51 0.0625 μM, Venetoclax 0.0002 μM, Azacitidine 0.0016 μM): 0.02
- Effect size (BIGL, HSA null model) (triplet: Compound 51 0.25 μM, Venetoclax 0.0001 μM, Azacitidine 0.008 μM): −0.00
- Effect size (BIGL, HSA null model) (triplet: Compound 51 0.25 μM, Venetoclax 0.0002 μM, Azacitidine 0.0016 μM): 0.00
- Effect size (BIGL, HSA null model) (triplet: Compound 51 0.25 μM, Venetoclax 0.005 μM, Azacitidine 0.04 μM): 0.11
- Effect size (BIGL, HSA null model) (triplet: Compound 51 0.25 μM, Venetoclax 0.024 μM, Azacitidine 0.2 μM): −0.07
- Effect size (BIGL, HSA null model) (triplet: Compound 51 0.25 μM, Venetoclax 0.12 μM, Azacitidine 1 μM): −0.14
- Effect size (BIGL, HSA null model) (triplet: Compound 51 0.25 μM, Venetoclax 0.6 μM, Azacitidine 5 μM): −0.06
- Effect size (BIGL, HSA null model) (triplet: Compound 51 0.25 μM, Venetoclax 3 μM, Azacitidine 25 μM): 0.01
- Effect size (BIGL, HSA null model) (triplet: Compound 51 1 μM, Venetoclax 0.0001 μM, Azacitidine 0.008 μM): −0.02
- Effect size (BIGL, HSA null model) (triplet: Compound 51 1 μM, Venetoclax 0.0002 μM, Azacitidine 0.0016 μM): −0.01
- Effect size (BIGL, HSA null model) (triplet: Compound 51 1 μM, Venetoclax 0.005 μM, Azacitidine 0.04 μM): −0.04
- Effect size (BIGL, HSA null model) (triplet: Compound 51 1 μM, Venetoclax 0.024 μM, Azacitidine 0.2 μM): −0.08
- Effect size (BIGL, HSA null model) (triplet: Compound 51 1 μM, Venetoclax 0.12 μM, Azacitidine 1 μM): −0.14
- Effect size (BIGL, HSA null model) (triplet: Compound 51 1 μM, Venetoclax 0.6 μM, Azacitidine 5 μM): −0.05
- Effect size (BIGL, HSA null model) (triplet: Compound 51 1 μM, Venetoclax 3 μM, Azacitidine 25 μM): 0.02
